Test results from patent US4200578A, “Thiazole derivatives” (Bristol-Myers Company, priority 1978, dated 1980).
Like-named read-outs stand apart in the source and are kept apart here.

Assays:
[1] = molecular target: T1, histamine H2-receptor (isolated guinea pig right atria) (Cavia porcellus, UniProt P47747); test: Histamine H2-receptor antagonism, isolated guinea pig right atria assay; conditions: for Histamine ED50 with 95% confidence limits, after test compound: ED50 of histamine in presence of test compound 3 × 10^-5 M, 30 minute incubation, N = 8 (cimetidine), 2 (BL-6040, BL-6044); for potency as histamine H2-receptor antagonist compared with cimetidine: isolated guinea pig atria (in vitro); for Concentration-Response Curve Displacement Factor: test compound 3 × 10^-5 M
T1 construct: The spontaneously beating right atrium was dissected free from other tissues; from tissue; host or cells: spontaneously beating right atrium of male Hartley strain guinea pigs
T1 sequence (P47747 whole entry): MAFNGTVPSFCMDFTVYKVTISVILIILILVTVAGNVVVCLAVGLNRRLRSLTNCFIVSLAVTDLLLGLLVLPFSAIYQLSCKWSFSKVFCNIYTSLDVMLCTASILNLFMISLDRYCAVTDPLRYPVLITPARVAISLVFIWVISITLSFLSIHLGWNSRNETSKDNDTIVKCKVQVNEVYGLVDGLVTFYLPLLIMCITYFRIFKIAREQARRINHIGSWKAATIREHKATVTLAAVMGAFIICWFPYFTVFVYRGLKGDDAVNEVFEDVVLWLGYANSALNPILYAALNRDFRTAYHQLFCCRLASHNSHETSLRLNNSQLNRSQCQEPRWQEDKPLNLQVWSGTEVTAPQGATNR
Protocol: The present comparative studies were carried out using a modification of the procedure reported by Reinhardt et al., Agents and Actions, 4, 217 (1974).
Male Hartley strain guinea pigs (350-450 gm.) were sacrificed by a blow on the head. The heart was excised and placed in a Petri dish of oxygenated (95% O2, 5% CO2) modified Krebs solution (g./liter: NaCl 6.6, KCl 0.35, MgSO4.7 H2 O 0.295, KH2 PO4 0.162, CaCl2 0.238, NaHCO3 2.1 and dextrose 2.09). The spontaneously beating right atrium was dissected free from other tissues and a silk thread (4-0) attached to each end. The atrium was suspended in a 20 ml. muscle chamber containing oxygenated modified Krebs solution maintained at 32° C. Atrial contractions were recorded isometrically by means of a Grass FT 0.03 force displacement transducer and recordings of contractile force and rate were made with Beckman RP Dynograph.
A resting tension of 1 g. was applied to the atrium and it was allowed to equilibrate for 1 hour.
Concentration-response curve displacement factors were calculated as follows: [formula] The factors obtained for BL-6040 and BL-6044 were then expressed as ratios of the factor obtained for cimetidine. [formula]

gastric acid output = test: Gastric antisecretory activity in the two hour pylorus ligated (Shay) rat; format: in vivo, rat (male Long Evans); conditions: for ED50: Rattus norvegicus, 2 h; for ED50 / Percent Inhibition Acid Output / Potency Ratio: ip; for potency as inhibitor of gastric acid secretion compared with cimetidine: rats (in vivo); for Potency Ratio: relative to cimetidine (1.0)
Source text: Determination of Gastric Antisecretory Activity in the Two Hour Pylorus Ligated (Shay) Rat
The pyloric ligation procedure in the rat was designed by Shay et al., Gastroenterology, 5, 53 (1945) for the study of perforating gastric ulcers; however, as the method became known, it was also employed as a means of studing rat gastric secretion, Shay et al., Gastroenterology, 26, 906 (1954), Brodie, D. A., Am. J. Dig. Dis., 11, 231 (1966). A modification of this procedure is presently used to evaluate compounds for gastric antisecretory activity.
Male Long Evans rats, 280-300 gm., are used. The animals are placed in individual cages and fasted for 24 hours with free access to water. Under ether anesthesia, the stomach is reached through a midline incision, and a cotton-thread ligature is placed around the pylorus. After wound closure, ether administration is stopped and either cimetidine, BL-6040, BL-6044 or vehicle is administered intraperitoneally in a volume of […]. All compounds are solubilized with one equivalent of HCl and brought to the proper volume with water. The animals are returned to their cages from which the water bottles have been removed and two hours later are sacrificed with ether. The stomach is removed and the two hour gastric collection is drained into a graduated test tube for volume determination. Titratable acidity is measured by titrating a one ml. sample to pH 7.0 with 0.02 NaOH, using an Autoburet and electrometric pH meter (Radiometer). Titratable acid output is calculated in microequivalents by mutiplying the volume in milliliters by the acid concentration in milliequivalents per liter. The percent inhibition of acid output is calculated as follows [formula]

histamine H2-receptor = conditions: cited from earlier work
gastric secretion = conditions: animals and man; cited from earlier work
[2] = cited from earlier work
[3] = in vivo; cited from earlier work
peptic ulcer disease = conditions: clinical evaluation; cited from earlier work
[4] = inhibition of gastric acid output, two hours, read-out: ED50
[5] = inhibition of gastric acid output

Histamine ED50 with 95% confidence limits, after test compound [1] [µg/mL]	potency as histamine H2-receptor antagonist compared with cimetidine [1]	Concentration-Response Curve Displacement Factor [1]	SMILES	ED50 (gastric acid output; [4]) [µmol/kg]	Percent Inhibition Acid Output (gastric acid output; 5 μMole/kg, two hours) [%]	Percent Inhibition Acid Output (gastric acid output; 10 μMole/kg, two hours) [%]	Percent Inhibition Acid Output (gastric acid output; 20 μMole/kg, two hours) [%]	potency as inhibitor of gastric acid secretion compared with cimetidine (gastric acid output)	Potency Ratio (gastric acid output; [5])	H2-receptor antagonism (histamine H2-receptor)	inhibition of gastric secretion (gastric secretion)	oral absorption ([2]; in vivo, po)	toxicity (agranulocytosis) [3]	efficacy in the treatment of peptic ulcer disease (peptic ulcer disease)	ED50 (gastric acid output) [µmol/kg]	half-life ([2]; in vivo)	oral activity ([2]; man)
20.79	more potent than cimetidine	46.20	C#CCNC(=C[N+](=O)[O-])NCCSCc1nccs1 [BL-6040, 1-Nitro-2-(2-propynylamino)-2-{2-[(thiazol-2-yl)methylthio]ethylamino}ethylene]	4.11	53	69	80	more potent than cimetidine	2.93								
14.25	more potent than cimetidine	43.18	C#CCNC(=NCCSCc1nccs1)NC#N [BL-6044, N-Cyano-N'-(2-propyn-1-yl)-N"-{2-[(thiazol-2-yl)methylthio]ethyl}guanidine]	5.73	52	58	73	more potent than cimetidine	2.11								
			CNC(=S)NCCCCc1cnc[nH]1 [Burimamide]							a competitive antagonist of these receptors	inhibits gastric secretion in animals and man	poor					
			C/N=C(\S)NCCSCc1[nH]cnc1C [Metiamide]							more potent than burimamide			toxicity (agranulocytosis)				orally active in man

SMILES	Histamine ED50 with 95% confidence limits, after test compound [1] [µg/mL]	potency as histamine H2-receptor antagonist compared with cimetidine [1]	Concentration-Response Curve Displacement Factor [1]	ED50 (gastric acid output; [4]) [µmol/kg]	Percent Inhibition Acid Output (gastric acid output; 5 μMole/kg, two hours) [%]	Percent Inhibition Acid Output (gastric acid output; 10 μMole/kg, two hours) [%]	Percent Inhibition Acid Output (gastric acid output; 20 μMole/kg, two hours) [%]	potency as inhibitor of gastric acid secretion compared with cimetidine (gastric acid output)	Potency Ratio (gastric acid output; [5])	H2-receptor antagonism (histamine H2-receptor)	inhibition of gastric secretion (gastric secretion)	oral absorption ([2]; in vivo, po)	toxicity (agranulocytosis) [3]	efficacy in the treatment of peptic ulcer disease (peptic ulcer disease)	ED50 (gastric acid output) [µmol/kg]	half-life ([2]; in vivo)	oral activity ([2]; man)
CN/C(=N/CCSCc1nc[nH]c1C)NC#N [Cimetidine, reference compound]	4.80		25.26		26	45	76			as effective an H2 antagonist as metiamide			without producing agranulocytosis	effective therapeutic agent in the treatment of peptic ulcer disease	12.1	relatively short	
